From ChEMBL document CHEMBL1201862, “PubChem BioAssay data set” (2004)
Calls of active or inactive are those of the source.

Legend:
[1] = molecular target: Prothrombin (Homo sapiens, UniProt P00734); experiment: Thrombin 1536 HTS Dose Response Confirmation. [Related pubchem assays: 1046 (Thrombin 1536 HTS; hits were confirmed in this assay)]; type: functional
[2] = molecular target: Nonstructural protein 1 (Influenza A virus, UniProt Q194T2); type: functional, Influenza A virus (A/California/07/2009(H1N1))
[3] = NIH3T3 cell viability loss – ATP luminescence, mouse fibroblasts, counter-screen, dose response (AID 2010); type: functional, cell-based;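 further: cells exposed to compound for about 90 hours before reading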
[4] = Trypanosoma cruzi growth suppression in host cells – NIH3T3 host cells, beta-gal luminescence, confirmation (AID 2044); type: functional, cell-based;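 further: intracellular parasites grown in NIH/3T3 mouse fibroblasts as host cells; luminescent beta-galactosidase reporter signal from transgenic T. cruzi replicating inside host cells; inhibitors lower the luminescence signal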
[5] = HIV-1 AD8 envelope cell-cell fusion blockers – cherry-pick, dose response (AID 652062); type: functional, cell-based;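 further: luciferase signal from cell-cell fusion driven by HIV-1 clade B AD8 Env; potency is for inhibitors of fusion seen as a drop in luminescence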
[6] = blockers of HIV-1 envelope-mediated cell-cell fusion – cherry-pick, dose response (AID 652057); type: functional, cell-based
[7] = blockers of HIV-1 ZM109 envelope-driven cell-cell fusion – HeLa effector, CEM target cells, luciferase, cherry-pick, dose response (AID 652058); type: functional, cell-based;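 further: luciferase signal from HIV-1 Env mediated cell-cell fusion of effector and target cells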
[8] = HEK-293T viability loss after treatment – luminescence, T-cell screen hits, cytotoxicity control for TCR NF-kB inhibitor project, dose response (AID 489026); type: functional, cell-based;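 further: cells exposed to compound about 14 hours before the viability readout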
[9] = molecular target: T1, Cytochrome P450 1A2 (Homo sapiens, UniProt P05177);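 further: PubChem cytochrome P450 panel assay, CYP1A2 panel member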
T1 sequence (P05177 whole entry): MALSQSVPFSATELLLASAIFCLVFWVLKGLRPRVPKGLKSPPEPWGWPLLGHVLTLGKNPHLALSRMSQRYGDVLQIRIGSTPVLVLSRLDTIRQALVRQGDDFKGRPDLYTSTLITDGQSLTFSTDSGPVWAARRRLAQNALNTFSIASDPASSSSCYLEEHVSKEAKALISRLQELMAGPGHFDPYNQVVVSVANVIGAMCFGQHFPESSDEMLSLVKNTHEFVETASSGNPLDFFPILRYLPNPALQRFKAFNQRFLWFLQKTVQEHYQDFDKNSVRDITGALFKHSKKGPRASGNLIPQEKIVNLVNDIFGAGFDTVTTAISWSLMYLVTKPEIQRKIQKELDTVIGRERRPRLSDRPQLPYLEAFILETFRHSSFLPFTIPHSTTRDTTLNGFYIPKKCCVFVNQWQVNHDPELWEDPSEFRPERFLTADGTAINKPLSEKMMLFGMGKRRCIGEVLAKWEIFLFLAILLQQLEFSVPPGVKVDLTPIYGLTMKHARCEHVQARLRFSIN

[10] = Luminescence Cell-Based Dose Retest to Confirm Inhibitors of Cancer Stem Cells. [Related pubchem assays (depositor defined):AID2717, AID2721]; type: functional; settings: Homo sapiens
[11] = off-target signal loss in HeLa-CEM21 co-culture – HeLa F-luc CTL cells, cherry-picked, counter-screen for HIV-1 Env fusion inhibitor project, dose response (AID 652040); type: functional, cell-based;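 further: potency for signal decrease marking cytotoxic or nonspecific inhibition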
[12] = molecular target: DNA dC->dU-editing enzyme APOBEC-3G (Homo sapiens, UniProt Q9HC16); type: functional;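 further: Dose-response counterscreen measuring inhibition of APOBEC3G DNA deaminase activity, run while confirming APOBEC3A inhibitors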
[13] = molecular target: DNA dC->dU-editing enzyme APOBEC-3A (Homo sapiens, UniProt P31941); experiment: Dose Response confirmation of small molecule APOBEC3A DNA Deaminase Inhibitors via a fluorescence-based single-stranded DNA deaminase assay. [Related pubchem assays (depositor defined):AID493011, AID493024]; type: functional
[14] = molecular target: T2, Microphthalmia-associated transcription factor (Homo sapiens, UniProt O75030); experiment: reducers of TRPM1 reporter luminescence, concentration series – cell-based, SK-MEL-5, cherry-picked, set 3, MITF inhibitor project, dose response (AID 493073); type: functional;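 further: SK-MEL-5 melanoma cells with luciferase driven by the MITF target TRPM1 promoter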
T2 sequence (O75030 whole entry): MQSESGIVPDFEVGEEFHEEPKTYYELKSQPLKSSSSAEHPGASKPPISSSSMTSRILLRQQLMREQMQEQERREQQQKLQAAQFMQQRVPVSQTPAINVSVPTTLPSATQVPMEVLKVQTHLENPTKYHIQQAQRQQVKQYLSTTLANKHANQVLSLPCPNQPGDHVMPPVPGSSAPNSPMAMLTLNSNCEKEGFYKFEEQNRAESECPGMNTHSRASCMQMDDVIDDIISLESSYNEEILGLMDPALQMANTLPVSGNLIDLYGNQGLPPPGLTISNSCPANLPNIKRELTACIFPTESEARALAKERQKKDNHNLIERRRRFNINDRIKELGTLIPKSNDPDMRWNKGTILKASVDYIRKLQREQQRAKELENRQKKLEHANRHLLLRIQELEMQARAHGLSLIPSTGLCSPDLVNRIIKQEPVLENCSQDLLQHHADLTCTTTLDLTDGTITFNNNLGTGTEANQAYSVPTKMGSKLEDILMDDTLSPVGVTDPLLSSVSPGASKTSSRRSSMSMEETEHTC

[15] = molecular target: T3, SUMO-activating enzyme (Homo sapiens, UniProt Q9UBT2); experiment: blockers of SAE1/SAE2–UBC9 SUMO transfer – biochemical, HTRF, uHTS, primary screen (AID 2006); type: protein-complex assay
[16] = molecular target: T3, SUMO-activating enzyme; experiment: blockers of UBC9-mediated SUMO conjugation – biochemical, AlphaScreen, SUMOylation inhibitor project, confirmation (AID 2018); type: functional
[17] = test system: Vero; experiment: mammalian cell viability reduction – secondary assay, cytotoxicity control for West Nile virus antiviral project, dose response (AID 1650); type: functional; settings: Chlorocebus sabaeus
[18] = molecular target: Peroxisome proliferator-activated receptor gamma/Nuclear receptor coactivator 3 (Homo sapiens, UniProt P37231); experiment: TR-FRET dose response biochemical High Throughput Screening assay for agonists of the steroid receptor coactivator 3 (SRC-3) recruitment by the peroxisome proliferator-activated receptor gamma (PPAR gamma): non-selective agonists. [Related pubchem assays: 1301 (Confirmation screen.), 1048 (Primary screen.)]; type: functional
[19] = molecular target: Peroxisome proliferator-activated receptor gamma/Nuclear receptor coactivator 2 (Homo sapiens, UniProt P37231); experiment: (§1) TR-FRET dose response biochemical High Throughput Screening assay for agonists of the steroid receptor coactivator 2 (SRC-2) recruitment by the peroxisome proliferator-activated receptor gamma (PPAR gamma): non-selective agonists. [Related pubchem assays: 1297, 1032 ]; type: functional
[20] = molecular target: Cytochrome P450 2D6 (Homo sapiens, UniProt P10635);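 further: CYP2D6 member of a cytochrome P450 panel assay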
[21] = molecular target: Peroxisome proliferator-activated receptor gamma/Nuclear receptor coactivator 1 (Homo sapiens, UniProt P37231); experiment: as §1, with “1 (SRC-1)” for “2 (SRC-2)”, “assays (depositor defined):AID1300, AID1808, AID504735, AID631]” for “assays: 1297, 1032 ]”; type: protein assay
[22] = molecular target: Beta-galactosidase (Escherichia coli, UniProt Q8VNN2); experiment: detection-enzyme interference by beta-gal modulators – biochemical, E. coli enzyme, set 3, artefact control for CCR6 antagonist project, dose response (AID 504712); type: functional
Sequence of Beta-galactosidase (Q8VNN2 whole entry): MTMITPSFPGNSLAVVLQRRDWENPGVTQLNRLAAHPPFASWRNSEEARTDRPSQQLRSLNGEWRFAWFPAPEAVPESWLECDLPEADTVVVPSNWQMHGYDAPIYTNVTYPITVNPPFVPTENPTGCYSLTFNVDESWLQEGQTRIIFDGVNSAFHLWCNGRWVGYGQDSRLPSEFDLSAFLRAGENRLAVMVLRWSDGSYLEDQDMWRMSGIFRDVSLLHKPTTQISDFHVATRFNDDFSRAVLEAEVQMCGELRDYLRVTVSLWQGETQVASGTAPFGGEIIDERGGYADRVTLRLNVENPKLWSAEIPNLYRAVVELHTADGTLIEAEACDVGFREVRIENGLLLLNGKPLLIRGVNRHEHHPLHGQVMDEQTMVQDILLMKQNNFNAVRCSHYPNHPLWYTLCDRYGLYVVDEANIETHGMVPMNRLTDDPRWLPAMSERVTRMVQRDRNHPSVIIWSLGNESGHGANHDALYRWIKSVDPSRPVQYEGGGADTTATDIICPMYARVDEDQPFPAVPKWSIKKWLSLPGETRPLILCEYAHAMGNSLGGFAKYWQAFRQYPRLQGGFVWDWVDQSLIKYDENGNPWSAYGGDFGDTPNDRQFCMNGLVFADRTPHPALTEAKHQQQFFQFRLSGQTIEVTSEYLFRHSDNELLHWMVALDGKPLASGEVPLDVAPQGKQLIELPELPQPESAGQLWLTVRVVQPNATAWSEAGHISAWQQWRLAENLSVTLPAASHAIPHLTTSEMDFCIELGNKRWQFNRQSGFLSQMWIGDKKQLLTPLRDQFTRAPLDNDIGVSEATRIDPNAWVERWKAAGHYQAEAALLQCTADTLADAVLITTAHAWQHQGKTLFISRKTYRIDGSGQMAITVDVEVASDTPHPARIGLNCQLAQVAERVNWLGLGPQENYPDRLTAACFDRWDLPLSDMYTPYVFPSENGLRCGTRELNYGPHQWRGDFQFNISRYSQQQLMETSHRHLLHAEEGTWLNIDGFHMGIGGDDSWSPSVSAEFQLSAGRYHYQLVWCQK

Sequence of DNA dC->dU-editing enzyme APOBEC-3G (Q9HC16 whole entry): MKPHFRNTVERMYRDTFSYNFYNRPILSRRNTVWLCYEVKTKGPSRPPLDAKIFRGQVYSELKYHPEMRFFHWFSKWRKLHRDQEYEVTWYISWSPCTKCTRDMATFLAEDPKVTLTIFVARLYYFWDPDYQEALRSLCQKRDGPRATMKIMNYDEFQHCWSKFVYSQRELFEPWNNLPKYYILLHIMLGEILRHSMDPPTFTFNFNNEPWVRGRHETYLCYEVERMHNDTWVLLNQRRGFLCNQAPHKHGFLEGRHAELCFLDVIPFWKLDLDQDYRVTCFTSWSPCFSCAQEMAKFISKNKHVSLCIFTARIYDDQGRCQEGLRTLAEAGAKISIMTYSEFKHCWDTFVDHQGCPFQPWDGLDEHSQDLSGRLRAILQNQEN
Sequence of DNA dC->dU-editing enzyme APOBEC-3A (P31941 whole entry): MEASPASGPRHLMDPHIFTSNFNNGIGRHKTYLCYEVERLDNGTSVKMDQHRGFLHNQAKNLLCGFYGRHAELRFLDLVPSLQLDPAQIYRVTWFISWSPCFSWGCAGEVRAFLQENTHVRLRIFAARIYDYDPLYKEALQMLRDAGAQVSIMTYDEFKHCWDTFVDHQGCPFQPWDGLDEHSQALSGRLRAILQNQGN
T3 sequence (Q9UBE0 whole entry): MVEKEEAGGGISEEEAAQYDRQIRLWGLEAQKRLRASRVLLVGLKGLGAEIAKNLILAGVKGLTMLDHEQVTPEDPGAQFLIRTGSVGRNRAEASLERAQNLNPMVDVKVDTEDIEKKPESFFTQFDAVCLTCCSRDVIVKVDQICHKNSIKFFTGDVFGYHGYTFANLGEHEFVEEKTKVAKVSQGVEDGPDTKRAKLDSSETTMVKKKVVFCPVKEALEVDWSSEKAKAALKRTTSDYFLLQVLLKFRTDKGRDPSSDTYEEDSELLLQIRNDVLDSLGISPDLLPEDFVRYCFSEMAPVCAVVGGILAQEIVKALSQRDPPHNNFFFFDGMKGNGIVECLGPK
T3 sequence (Q9UBT2 whole entry): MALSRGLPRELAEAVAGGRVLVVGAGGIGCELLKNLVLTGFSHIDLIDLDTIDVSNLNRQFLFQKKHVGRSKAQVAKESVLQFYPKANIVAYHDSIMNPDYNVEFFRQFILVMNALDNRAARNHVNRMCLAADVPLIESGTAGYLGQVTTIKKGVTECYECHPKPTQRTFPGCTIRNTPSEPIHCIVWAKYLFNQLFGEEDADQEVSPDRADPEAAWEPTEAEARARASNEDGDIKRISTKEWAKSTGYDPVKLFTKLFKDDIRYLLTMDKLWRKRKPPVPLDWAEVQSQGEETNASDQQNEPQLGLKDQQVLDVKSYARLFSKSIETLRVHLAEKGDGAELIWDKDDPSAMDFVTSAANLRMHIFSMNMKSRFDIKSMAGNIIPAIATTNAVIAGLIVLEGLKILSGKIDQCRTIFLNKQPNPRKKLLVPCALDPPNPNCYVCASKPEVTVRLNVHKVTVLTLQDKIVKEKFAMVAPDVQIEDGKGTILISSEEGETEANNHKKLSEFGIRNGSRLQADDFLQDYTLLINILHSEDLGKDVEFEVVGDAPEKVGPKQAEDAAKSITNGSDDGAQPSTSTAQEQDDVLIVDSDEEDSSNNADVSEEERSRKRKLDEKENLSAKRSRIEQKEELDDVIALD
Sequence of Cytochrome P450 2D6 (P10635 whole entry): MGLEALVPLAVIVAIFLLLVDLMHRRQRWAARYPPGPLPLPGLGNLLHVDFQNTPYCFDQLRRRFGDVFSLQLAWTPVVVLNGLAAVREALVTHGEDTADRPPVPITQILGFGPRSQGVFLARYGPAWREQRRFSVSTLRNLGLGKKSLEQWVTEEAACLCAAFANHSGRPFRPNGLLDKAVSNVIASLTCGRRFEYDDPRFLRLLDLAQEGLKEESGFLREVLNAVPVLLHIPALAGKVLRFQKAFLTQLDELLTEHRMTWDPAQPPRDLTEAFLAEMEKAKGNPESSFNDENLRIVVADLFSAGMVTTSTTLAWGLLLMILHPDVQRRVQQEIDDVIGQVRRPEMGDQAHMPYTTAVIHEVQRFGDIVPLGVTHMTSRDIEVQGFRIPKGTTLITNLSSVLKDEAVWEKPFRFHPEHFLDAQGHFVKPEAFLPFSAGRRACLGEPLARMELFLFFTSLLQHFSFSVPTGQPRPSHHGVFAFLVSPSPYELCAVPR
Sequence of Nonstructural protein 1 (Q194T2 whole entry): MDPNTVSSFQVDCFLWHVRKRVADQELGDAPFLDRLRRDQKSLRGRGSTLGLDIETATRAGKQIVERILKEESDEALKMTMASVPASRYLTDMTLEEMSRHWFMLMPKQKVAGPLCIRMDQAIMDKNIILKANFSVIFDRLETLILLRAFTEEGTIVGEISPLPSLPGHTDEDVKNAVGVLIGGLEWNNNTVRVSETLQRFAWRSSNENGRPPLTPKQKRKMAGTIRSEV

In the case of Nc1nc(-c2cccnc2)nn1C(=O)Cc1ccccc1, the IC50 [1] is reported as 0.0753 µM (active).

With COc1ccc(-n2nc([N+](=O)[O-])c(NCCC3=CCCCC3)[n+]2[O-])cc1 the IC50 [2] was 41.3 µM (active), the EC50 [3] was > 60 µM (not active) and the EC50 [4] was 0.534 µM (active).

For O=C(Nc1ccc(C(F)(F)F)cc1)c1cccn(Cc2ccc3c(c2)OC(F)(F)O3)c1=O, the AC50 [5] was 6 µM (active), the AC50 [6] was 22.5 µM (active) and the AC50 [7] was 0.59 µM (active). For the same compound, the IC50 [8] was > 80 µM (inactive), the AC50 [9] was 25.1 µM (inconclusive) and the AC50 [10] was 3.68 µM (active). For the same compound, the AC50 [11] was 50.7 µM (active).

In the case of CCCCN(C(=O)c1cnccn1)c1c(N)n(CCC)c(=O)[nH]c1=O, the IC50 [12] is reported as 15.5 µM (active) and the IC50 [13] is reported as 13.7 µM (active).

With CC(O)C(=O)N/N=C/c1cccc2ccccc12 (configuration not stated) the IC50 [1] was 48.8 µM (active).

With CN(Cc1ccccc1)C1=CC(=[N+]2CCCC2)CC(C)(C)C1 the IC50 [8] was > 80 µM (inactive), the EC50 [3] was > 60 µM (not active) and the EC50 [4] was 0.171 µM (active). The AC50 [14] was 1.55 µM (active).

For Cn1nnnc1SCC(=O)Nc1ccc(Br)cc1Cl, the IC50 [12] was 9.75 µM (active) and the IC50 [13] was 5.35 µM (active).

For CC1=C(C(=O)Nc2ccccc2)C(c2ccc(C)cc2)NC(Nc2nc3ccccc3o2)=N1 (configuration not stated), the IC50 [15] was 4.07 µM (active), the EC50 [3] was 22.3 µM (active) and the IC50 [16] was 20.2 µM (active). For the same compound, the CC50 [17] was > 100 µM (active) and the EC50 [4] was 0.982 µM (active).

For CCOc1ccc2c(c1)nc(SCC(=O)c1ccc(Br)s1)n2C, the EC50 [18] was > 79.4 µM (not active), the EC50 [19] was 22.9 µM (not active) and the AC50 [20] was 12.6 µM (inconclusive). For the same compound, the EC50 [21] was > 79.4 µM (inactive).

In the case of CCCCn1c(N)c(C(=S)NC(=O)CC(C)C)c(=O)n(C)c1=O, the IC50 [22] is reported as > 66.6 µM (inactive).

In the case of O=C(NC(=S)N(CCc1ccccc1)CCc1ccccc1)c1ccco1, the IC50 [22] is reported as > 66.6 µM (inactive).

In the case of O=C(Nc1ccc(S(=O)(=O)N2CCCCC2)cc1)c1ccc(CN2CCOCC2)cc1, the IC50 [8] is reported as 27.2 µM (inactive).
